According to publication PMC2806030, “Inhibition of mammalian S6 kinase by resveratrol suppresses autophagy” (Aging (Albany NY), 2009):

Legend:
Test in all cases: biochemical
Design in all cases: Upstate KinaseProfiler in vitro kinase activity assay, per cent of DMSO control
Conditions in all cases: read-out: Activity (% of Control)
[1] = target: T1, SGK(h) (Homo sapiens, UniProt O00141)
T1 construct: gene SGK1
How it was run: (§1)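 Profiling done with Upstate KinaseProfiler service across 100 kinases, resveratrol tested at 20 μM; activity expressed relative to control.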

[2] = target: T2, IRR(h) (Homo sapiens, UniProt P14616)
T2 construct: gene INSRR
How it was run: as §1

[3] = target: T3, PI 3-Kinaseγ(h) (Homo sapiens, UniProt P48736)
T3 construct: gene PIK3CG
How it was run: as §1

[4] = target: T4, PI 3-Kinaseδ(h) (Homo sapiens, UniProt O00329)
T4 construct: gene PIK3CD
How it was run: as §1

[5] = target: T5, MEK1(h) (Homo sapiens, UniProt Q02750)
T5 construct: gene MAP2K1
How it was run: as §1

[6] = target: T6, PKCγ(h) (Homo sapiens, UniProt P05129)
T6 construct: gene PRKCG
How it was run: as §1

[7] = target: T7, PKBα(h) (Homo sapiens, UniProt P31749)
T7 construct: gene AKT1
How it was run: as §1

[8] = target: T8, SAPK2b(h) (Homo sapiens, UniProt Q15759)
T8 construct: gene MAPK11
How it was run: as §1

[9] = target: T9, Rsk2(h) (Homo sapiens, UniProt P51812)
T9 construct: gene RPS6KA3
How it was run: as §1

[10] = target: CDK6/cyclinD3(h) (Homo sapiens, UniProt Q00534)
How it was run: as §1

[11] = target: T10, PKCδ(h) (Homo sapiens, UniProt Q05655)
T10 construct: gene PRKCD
How it was run: as §1

[12] = target: NLK (Homo sapiens, UniProt Q9UBE8)
How it was run: as §1

[13] = target: CSK(h) (Homo sapiens, UniProt P41240)
How it was run: as §1

[14] = target: PAK2(h) (Homo sapiens, UniProt Q13177)
How it was run: as §1

[15] = target: LIMK1(h) (Homo sapiens, UniProt P53667)
How it was run: as §1

[16] = target: T11, CHK2(h) (Homo sapiens, UniProt O96017)
T11 construct: gene CHEK2
How it was run: as §1

[17] = target: DAPK2(h) (Homo sapiens, UniProt Q9UIK4)
How it was run: as §1

[18] = target: T12, IGF-1R(h) (Homo sapiens, UniProt P08069)
T12 construct: gene IGF1R
How it was run: as §1

T3 sequence (P48736 whole entry): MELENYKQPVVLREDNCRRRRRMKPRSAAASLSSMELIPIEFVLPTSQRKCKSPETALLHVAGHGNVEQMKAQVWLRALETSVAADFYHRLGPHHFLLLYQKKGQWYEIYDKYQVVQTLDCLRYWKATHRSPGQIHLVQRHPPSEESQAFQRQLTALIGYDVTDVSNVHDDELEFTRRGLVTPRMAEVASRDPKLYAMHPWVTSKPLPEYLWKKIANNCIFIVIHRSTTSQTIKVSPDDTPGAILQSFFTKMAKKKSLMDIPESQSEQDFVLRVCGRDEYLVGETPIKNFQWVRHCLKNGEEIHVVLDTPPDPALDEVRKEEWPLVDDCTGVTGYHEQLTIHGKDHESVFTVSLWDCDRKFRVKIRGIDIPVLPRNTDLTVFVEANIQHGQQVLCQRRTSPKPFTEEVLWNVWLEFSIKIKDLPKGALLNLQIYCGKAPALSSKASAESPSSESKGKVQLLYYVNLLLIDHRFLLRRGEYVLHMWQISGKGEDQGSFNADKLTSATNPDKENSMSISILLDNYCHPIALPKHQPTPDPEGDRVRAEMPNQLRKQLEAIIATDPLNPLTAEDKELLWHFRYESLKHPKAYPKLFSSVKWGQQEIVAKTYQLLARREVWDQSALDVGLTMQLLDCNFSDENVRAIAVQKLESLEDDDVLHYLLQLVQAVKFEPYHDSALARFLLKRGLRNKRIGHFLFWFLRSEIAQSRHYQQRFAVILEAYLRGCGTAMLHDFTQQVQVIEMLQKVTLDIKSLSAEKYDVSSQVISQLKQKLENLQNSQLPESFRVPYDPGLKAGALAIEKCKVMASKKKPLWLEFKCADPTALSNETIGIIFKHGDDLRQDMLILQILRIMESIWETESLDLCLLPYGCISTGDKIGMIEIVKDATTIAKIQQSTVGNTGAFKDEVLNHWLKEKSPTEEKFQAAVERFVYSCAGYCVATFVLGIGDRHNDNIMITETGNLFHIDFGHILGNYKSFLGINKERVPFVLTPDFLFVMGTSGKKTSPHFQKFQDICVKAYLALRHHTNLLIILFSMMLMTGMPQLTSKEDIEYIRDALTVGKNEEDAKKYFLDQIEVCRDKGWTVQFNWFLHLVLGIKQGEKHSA
Chain of DAPK2(h) (Q9UIK4 whole entry): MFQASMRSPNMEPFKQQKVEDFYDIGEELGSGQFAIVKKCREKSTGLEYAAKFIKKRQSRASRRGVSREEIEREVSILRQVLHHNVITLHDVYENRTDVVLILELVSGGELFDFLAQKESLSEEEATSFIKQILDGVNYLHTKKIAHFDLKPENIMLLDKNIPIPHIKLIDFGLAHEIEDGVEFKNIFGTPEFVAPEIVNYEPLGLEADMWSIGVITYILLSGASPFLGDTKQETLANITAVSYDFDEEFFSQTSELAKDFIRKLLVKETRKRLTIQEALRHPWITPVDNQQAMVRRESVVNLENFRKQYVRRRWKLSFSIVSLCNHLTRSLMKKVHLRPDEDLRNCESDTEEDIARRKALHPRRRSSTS
Chain of CSK(h) (P41240 whole entry): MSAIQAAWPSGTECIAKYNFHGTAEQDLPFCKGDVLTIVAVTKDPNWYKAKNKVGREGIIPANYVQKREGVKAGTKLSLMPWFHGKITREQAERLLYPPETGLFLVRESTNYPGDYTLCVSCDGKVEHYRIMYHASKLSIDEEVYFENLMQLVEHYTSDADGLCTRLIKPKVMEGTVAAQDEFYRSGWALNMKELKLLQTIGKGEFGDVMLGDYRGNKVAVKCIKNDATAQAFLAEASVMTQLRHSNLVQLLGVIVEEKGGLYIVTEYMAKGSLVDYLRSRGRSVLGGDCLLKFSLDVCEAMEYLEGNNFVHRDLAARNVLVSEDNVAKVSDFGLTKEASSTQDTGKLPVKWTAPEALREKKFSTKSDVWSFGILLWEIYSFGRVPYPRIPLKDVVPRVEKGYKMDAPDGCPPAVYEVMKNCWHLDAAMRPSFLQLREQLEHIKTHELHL
T7 sequence (P31749 whole entry): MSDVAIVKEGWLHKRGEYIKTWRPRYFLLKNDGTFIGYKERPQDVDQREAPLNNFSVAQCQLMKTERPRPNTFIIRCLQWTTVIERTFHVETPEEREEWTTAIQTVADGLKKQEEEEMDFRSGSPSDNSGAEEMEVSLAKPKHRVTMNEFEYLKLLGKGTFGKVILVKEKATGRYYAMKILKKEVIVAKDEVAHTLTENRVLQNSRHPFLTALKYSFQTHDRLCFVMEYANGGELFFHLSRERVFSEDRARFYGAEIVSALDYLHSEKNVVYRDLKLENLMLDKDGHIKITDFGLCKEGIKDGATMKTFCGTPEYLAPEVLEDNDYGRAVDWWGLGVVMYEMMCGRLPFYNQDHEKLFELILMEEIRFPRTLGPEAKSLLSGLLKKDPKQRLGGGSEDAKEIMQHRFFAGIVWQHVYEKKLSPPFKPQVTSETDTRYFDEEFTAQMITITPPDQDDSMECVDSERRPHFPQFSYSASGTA
T8 sequence (Q15759 whole entry): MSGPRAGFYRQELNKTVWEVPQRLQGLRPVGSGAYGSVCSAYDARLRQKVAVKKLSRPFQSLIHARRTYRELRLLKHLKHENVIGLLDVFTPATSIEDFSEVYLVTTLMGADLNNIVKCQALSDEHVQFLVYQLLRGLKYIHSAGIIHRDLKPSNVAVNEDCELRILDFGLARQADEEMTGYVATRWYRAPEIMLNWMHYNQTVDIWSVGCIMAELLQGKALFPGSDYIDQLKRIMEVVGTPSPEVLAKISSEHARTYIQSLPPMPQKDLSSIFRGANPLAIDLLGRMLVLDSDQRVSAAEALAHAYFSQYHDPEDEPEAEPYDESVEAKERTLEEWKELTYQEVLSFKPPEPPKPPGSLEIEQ
T1 sequence (O00141 whole entry): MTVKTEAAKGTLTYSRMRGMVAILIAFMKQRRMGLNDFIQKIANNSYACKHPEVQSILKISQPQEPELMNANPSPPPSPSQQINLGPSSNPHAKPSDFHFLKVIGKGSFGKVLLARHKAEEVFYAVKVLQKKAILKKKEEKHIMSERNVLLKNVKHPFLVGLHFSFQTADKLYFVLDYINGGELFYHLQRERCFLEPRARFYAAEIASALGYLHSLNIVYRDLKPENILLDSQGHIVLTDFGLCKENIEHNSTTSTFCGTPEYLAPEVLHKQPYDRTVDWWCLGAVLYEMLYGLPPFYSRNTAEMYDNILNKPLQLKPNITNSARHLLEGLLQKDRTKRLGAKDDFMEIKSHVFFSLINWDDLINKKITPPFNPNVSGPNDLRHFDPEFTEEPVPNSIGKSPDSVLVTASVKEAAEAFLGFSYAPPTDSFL
T4 sequence (O00329 whole entry): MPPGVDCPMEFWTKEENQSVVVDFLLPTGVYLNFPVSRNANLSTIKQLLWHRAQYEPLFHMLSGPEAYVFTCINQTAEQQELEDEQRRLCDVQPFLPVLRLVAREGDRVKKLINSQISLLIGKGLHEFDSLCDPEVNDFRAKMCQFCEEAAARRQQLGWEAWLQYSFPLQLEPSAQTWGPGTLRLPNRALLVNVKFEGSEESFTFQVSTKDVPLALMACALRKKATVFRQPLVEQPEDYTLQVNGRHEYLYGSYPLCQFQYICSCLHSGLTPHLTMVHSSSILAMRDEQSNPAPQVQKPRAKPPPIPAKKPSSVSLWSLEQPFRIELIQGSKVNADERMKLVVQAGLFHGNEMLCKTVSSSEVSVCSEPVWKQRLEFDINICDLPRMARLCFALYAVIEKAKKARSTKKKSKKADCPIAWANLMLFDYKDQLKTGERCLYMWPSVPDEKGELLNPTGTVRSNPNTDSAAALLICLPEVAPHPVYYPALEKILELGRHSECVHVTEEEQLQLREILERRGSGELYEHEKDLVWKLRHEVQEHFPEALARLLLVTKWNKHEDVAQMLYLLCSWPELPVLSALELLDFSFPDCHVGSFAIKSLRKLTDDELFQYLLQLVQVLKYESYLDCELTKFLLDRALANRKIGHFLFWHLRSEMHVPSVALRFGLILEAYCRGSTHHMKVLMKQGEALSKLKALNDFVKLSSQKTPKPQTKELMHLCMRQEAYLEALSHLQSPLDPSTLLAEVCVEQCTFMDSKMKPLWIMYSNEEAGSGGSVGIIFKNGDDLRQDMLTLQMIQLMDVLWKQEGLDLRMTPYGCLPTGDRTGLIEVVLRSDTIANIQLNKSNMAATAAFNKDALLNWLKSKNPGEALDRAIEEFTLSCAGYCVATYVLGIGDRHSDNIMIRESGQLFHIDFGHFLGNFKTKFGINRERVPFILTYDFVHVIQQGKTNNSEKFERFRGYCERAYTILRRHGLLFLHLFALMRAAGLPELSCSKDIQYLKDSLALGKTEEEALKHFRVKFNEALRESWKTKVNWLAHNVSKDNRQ
T4 sequence (P27986 whole entry partner): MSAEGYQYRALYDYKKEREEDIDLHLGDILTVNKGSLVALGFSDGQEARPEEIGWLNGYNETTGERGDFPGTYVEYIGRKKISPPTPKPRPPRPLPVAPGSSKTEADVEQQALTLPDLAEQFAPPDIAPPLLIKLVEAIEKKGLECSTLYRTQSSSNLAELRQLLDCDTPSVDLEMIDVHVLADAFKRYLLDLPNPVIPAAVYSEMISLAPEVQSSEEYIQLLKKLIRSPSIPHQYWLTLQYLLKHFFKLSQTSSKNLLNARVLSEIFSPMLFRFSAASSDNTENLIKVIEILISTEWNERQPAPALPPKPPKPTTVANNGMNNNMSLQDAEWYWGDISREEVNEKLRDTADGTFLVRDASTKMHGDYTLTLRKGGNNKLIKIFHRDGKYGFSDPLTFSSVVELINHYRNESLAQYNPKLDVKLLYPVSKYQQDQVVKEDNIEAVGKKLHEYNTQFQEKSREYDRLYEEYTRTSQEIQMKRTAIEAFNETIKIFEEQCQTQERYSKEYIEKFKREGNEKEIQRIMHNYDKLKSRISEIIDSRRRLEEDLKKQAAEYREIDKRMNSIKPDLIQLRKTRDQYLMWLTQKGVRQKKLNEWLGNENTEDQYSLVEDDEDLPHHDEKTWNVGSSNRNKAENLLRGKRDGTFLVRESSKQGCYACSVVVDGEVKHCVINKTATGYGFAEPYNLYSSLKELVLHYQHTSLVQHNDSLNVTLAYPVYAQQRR

SMILES: Oc1ccc(/C=C/c2cc(O)cc(O)c2)cc1 [Res, resveratrol]
- remaining activity at 20 µM [1]: 86 ± 13%
- remaining activity at 20 µM [2]: 40%
- remaining activity at 20 µM [3]: 101 ± 1%
- remaining activity at 20 µM [4]: 106 ± 1%
- remaining activity at 20 µM [5]: 110 ± 5%
- remaining activity at 20 µM [6]: 80 ± 8%
- remaining activity at 20 µM [7]: 94 ± 2%
- remaining activity at 20 µM [8]: 100 ± 1%
- remaining activity at 20 µM [9]: 32%
- remaining activity at 20 µM [10]: 55 ± 2%
- remaining activity at 20 µM [11]: 92 ± 1%
- remaining activity at 20 µM [12]: 30 ± 2%
- remaining activity at 20 µM [13]: 94 ± 5%
- remaining activity at 20 µM [14]: 98 ± 4%
- remaining activity at 20 µM [15]: 84 ± 4%
- remaining activity at 20 µM [16]: 59 ± 6%
- remaining activity at 20 µM [17]: 67 ± 7%
- remaining activity at 20 µM [18]: 75%
